# Measurements published in paper PMC5414855 (Toxicological Sciences, 2017).
# pEC50: −log10 of the molar value.
# Columns and labels:
# [1] = system: zebrafish AHR1A, AHR1B, and AHR2; experiment: Antisense morpholino knockdown, any of the morpholinos; type: in vivo
# [2] = system: 21 AHR-related, cardiac stress-related and oxidative stress gene transcripts
# AHR2 = target: T1, AHR2 (Danio rerio, UniProt Q9YGV3); experiment: Antisense morpholino knockdown of AHR2 in Tg; type: in vivo, zebrafish; conditions: for expression in the skin and vasculature in AHR2 morphants: not shown
# T1 sequence (Q9YGV3 1-1027): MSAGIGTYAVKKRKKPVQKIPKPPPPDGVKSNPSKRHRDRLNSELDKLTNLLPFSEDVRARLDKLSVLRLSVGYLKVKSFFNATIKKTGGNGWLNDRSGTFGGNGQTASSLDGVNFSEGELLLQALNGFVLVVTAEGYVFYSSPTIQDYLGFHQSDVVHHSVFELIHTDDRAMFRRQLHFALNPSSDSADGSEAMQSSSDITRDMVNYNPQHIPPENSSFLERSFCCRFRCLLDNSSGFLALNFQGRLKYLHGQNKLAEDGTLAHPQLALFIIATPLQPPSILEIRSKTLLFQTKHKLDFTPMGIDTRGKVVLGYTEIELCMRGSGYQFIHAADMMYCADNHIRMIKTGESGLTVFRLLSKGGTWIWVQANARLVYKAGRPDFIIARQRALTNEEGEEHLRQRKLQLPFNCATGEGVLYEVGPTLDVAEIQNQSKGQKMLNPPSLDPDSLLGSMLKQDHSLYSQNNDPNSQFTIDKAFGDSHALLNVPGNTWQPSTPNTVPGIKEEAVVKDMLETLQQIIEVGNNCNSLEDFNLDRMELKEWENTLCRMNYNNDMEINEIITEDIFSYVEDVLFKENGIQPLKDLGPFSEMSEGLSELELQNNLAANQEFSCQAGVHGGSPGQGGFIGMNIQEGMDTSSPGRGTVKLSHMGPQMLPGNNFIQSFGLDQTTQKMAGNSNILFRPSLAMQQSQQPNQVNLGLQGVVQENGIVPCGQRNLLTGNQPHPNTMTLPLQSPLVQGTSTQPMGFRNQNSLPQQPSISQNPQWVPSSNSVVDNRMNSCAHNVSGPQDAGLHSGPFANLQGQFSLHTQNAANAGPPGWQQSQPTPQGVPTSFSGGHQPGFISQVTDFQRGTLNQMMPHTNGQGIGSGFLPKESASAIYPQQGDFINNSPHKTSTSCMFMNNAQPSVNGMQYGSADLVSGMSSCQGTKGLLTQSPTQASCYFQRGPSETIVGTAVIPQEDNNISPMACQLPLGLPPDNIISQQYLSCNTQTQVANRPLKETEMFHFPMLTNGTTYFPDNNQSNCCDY
# arg2 = conditions: 48 hpf embryos; dependent on AHR2; ref Goodale et al., 2015; cited from earlier work
# cyp1a/GFP = conditions: ref Goodale et al., 2015; cited from earlier work
# zebrafish embryos [3] = conditions: zebrafish embryos exposed 6 to 120 hpf; beyond the range of concentrations tested and beyond the range of accuracy of the EC50 model
# AHR1A = experiment: Antisense morpholino knockdown of AHR1A in Tg; type: in vivo, zebrafish; conditions: for cyp1a/GFP expression in the livers in AHR1A morphants: single concentration
# zebrafish embryos [4] = experiment: animal or person; conditions: Danio rerio, read-out: EC50, calculated value beyond the range of concentrations tested, zebrafish embryos exposed 6 to 120 hpf; beyond the range of concentrations tested and beyond the range of accuracy of the EC50 model
# cyp1a = conditions: transgenic Japanese Medaka; ref Ng and Gong, 2013; cited from earlier work
compound,measurement,setting,value
"O=[N+]([O-])c1cc([N+](=O)[O-])c2ccc3cccc4ccc1c2c43 [1,3-dinitropyrene]",cyp1a/GFP expression in the yolk after injection with any of the morpholinos,[1],did not appear to decrease
same,"expression of nppb, increase","[2]; 3.56 µM, 120 hpf",23 fold
same,"expression of myl7, significant increase",[2]; 48 hpf,2 fold
same,number of differentially expressed genes,"[2]; 48 hpf, suite of 21 genes",4
"O=[N+]([O-])c1ccc2ccc3c([N+](=O)[O-])ccc4ccc1c2c43 [1,6-dinitropyrene]","cyp1a/GFP expression in the vasculature and/or skin (and neuromasts, for 7-nitrobenzo[k]fluoranthene) following knockdown of AHR2",AHR2,near-complete inhibition
same,toxicity in AHR2 morphants,AHR2,Decreased toxicity
same,expression in the skin and vasculature in AHR2 morphants,AHR2,reduced
same,"expression of cyp1a, cyp1b1, cyp1c1, and cyp1c2","[2]; 5 µM, at 48 and 120 hpf, vs DMSO control",Significantly increased expression
same,"expression of cyp1a1, increase","[2]; 48 hpf, compared to the DMSO exposed controls","1,963 fold"
same,expression of arg2,[2]; 120 hpf,significantly increased expression
"O=C1c2ccccc2-c2cccc3cccc1c23 [1,9-benz-10-anthrone]",arg2 expression,arg2,significantly elevated
same,cyp1a/GFP expression in the syncytial layer of the yolk,cyp1a/GFP,previously observed
O=[N+]([O-])c1ccc2cc3ccccc3cc2c1 [2-nitroanthracene],"EC50, calculated value beyond the range of concentrations tested",zebrafish embryos [3],beyond the tested range of concentrations
"O=[N+]([O-])c1c2c(cc3ccccc13)-c1ccc([N+](=O)[O-])c3cccc-2c13 [3,7-dinitrobenzo[k]fluoranthene]","cyp1a/GFP expression in the vasculature and/or skin (and neuromasts, for 7-nitrobenzo[k]fluoranthene) following knockdown of AHR2",AHR2,near-complete inhibition
same,expression in the skin and vasculature in AHR2 morphants,AHR2,reduced
O=[N+]([O-])c1ccc2c3c(cccc13)-c1ccccc1-2 [3-nitrofluoranthene],cyp1a/GFP expression in the yolk after injection with any of the morpholinos,[1],did not appear to decrease
O=[N+]([O-])c1ccc2c3c(cccc13)CC2 [5-nitroacenaphthalene],observed developmental toxicity in AHR1A morphants,AHR1A,did not result in a substantial decrease
same,cyp1a/GFP expression in the livers in AHR1A morphants,AHR1A,eliminated
same,expression of arg2,[2]; 120 hpf,significantly increased expression
O=[N+]([O-])c1c2ccccc2cc2c1ccc1ccccc12 [7-nitrobenz[a]anthracene],"cyp1a/GFP expression in the vasculature and/or skin (and neuromasts, for 7-nitrobenzo[k]fluoranthene) following knockdown of AHR2",AHR2,near-complete inhibition
same,"GFP expression in AHR2 morphants, vasculature",AHR2; at both 48 and 120 hpf,Decreased GFP expression
same,"EC50, calculated value beyond the range of concentrations tested",zebrafish embryos [3],beyond the tested range of concentrations
same,pEC50,zebrafish embryos [4],3.62
O=[N+]([O-])c1c2c(cc3ccccc13)-c1cccc3cccc-2c13 [7-nitrobenzo[k]fluoranthene],cyp1a/GFP expression in the livers in AHR1A morphants,AHR1A,eliminated
same,"cyp1a/GFP expression in the vasculature and/or skin (and neuromasts, for 7-nitrobenzo[k]fluoranthene) following knockdown of AHR2",AHR2,near-complete inhibition
same,"GFP expression in AHR2 morphants, skin and neuromasts",AHR2; at both 48 and 120 hpf,Decreased GFP expression
same,"expression of cyp1a, cyp1b1, and cyp1c1","[2]; 50 µM, at 120 hpf, vs DMSO control",Significantly increased expression
same,expression of arg2,[2]; 120 hpf,significantly increased expression
O=[N+]([O-])c1cc2ccccc2c2ccccc12 [9-nitrophenanthrene],cyp1a/GFP expression in the livers in AHR1A morphants,AHR1A,eliminated
c1ccc2c(c1)oc1ccccc12 [Dibenzofuran],"EC50, calculated value beyond the range of concentrations tested",zebrafish embryos [3],beyond the tested range of concentrations
same,pEC50,zebrafish embryos [4],3.64
Clc1cc2c(cc1Cl)Oc1cc(Cl)c(Cl)cc1O2 [TCDD],expression of cyp1a in the neuromasts,cyp1a,observed previously
